Assays:
[1] = biological target: human CYP2D6 (Homo sapiens, UniProt P10635); experiment: Cytochrome P450 2D6 inhibition (dextromethorphan O-demethylation, pooled human hepatic microsome)
[2] = biological target: human opioid receptor-like (ORL-1) (Homo sapiens, UniProt P41146); experiment: In vitro ORL-1 receptor [35S]GTPγS functional assay; type: biochemical
[3] = biological target: human kappa opioid receptor (Homo sapiens, UniProt P41145); experiment: In vitro kappa-opioid receptor binding assay ([3H]-U69,593 displacement)
Chain of human kappa opioid receptor (P41145 whole entry): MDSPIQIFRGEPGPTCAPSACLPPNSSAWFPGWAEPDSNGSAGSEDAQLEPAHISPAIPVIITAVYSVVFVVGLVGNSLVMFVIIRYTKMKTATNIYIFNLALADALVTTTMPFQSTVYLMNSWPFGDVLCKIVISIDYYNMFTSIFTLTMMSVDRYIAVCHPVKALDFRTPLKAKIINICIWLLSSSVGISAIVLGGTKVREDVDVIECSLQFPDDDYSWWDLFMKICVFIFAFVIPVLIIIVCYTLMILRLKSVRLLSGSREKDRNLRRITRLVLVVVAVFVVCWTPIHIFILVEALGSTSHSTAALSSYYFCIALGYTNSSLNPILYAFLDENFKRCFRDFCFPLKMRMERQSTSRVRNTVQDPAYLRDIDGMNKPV

Chain of human opioid receptor-like (ORL-1) (P41146 whole entry): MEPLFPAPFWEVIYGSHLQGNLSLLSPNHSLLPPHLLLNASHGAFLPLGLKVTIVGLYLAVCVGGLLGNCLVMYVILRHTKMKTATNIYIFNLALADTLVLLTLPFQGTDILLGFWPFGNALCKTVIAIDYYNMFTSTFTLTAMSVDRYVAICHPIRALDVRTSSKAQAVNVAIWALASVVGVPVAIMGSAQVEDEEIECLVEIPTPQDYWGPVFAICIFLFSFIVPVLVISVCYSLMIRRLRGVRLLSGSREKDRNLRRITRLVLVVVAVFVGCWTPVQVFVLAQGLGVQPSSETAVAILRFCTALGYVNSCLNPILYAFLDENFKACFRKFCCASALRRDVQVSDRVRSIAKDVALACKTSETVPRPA
Chain of human CYP2D6 (P10635 whole entry): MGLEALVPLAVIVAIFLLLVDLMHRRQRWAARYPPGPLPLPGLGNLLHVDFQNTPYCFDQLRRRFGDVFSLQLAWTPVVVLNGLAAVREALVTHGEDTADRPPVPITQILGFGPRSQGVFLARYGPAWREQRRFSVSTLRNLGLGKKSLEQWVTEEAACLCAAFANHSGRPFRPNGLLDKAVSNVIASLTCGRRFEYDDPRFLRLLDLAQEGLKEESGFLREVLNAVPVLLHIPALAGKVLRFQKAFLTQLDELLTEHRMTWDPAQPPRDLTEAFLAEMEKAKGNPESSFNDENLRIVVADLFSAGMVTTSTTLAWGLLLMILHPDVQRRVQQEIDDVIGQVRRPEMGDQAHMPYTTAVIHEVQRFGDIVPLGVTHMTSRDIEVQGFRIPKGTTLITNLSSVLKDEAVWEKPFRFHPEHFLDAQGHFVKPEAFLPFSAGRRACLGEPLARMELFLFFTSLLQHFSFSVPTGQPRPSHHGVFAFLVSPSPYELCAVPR

Row | SMILES | IC50 [1] | EC50 [2] | Ki [3]
1 | O=c1cnn(-c2nc3ccccc3n([C@H]3C[C@H]4CCC[C@@H](C3)N4[C@@H]3C[C@@H]4CCCC[C@@H](C4)C3)c2=O)c(=O)[nH]1 [Compound O9b, 2-(4-((1R,3R,5S)-9-((1R,6S,8s)-bicyclo[4.3.1]decan-8-yl)-9-azabicyclo[3.3.1]nonan-3-yl)-3-oxo-3,4-dihydroquinoxalin-2-yl)-1,2,4-triazine-3,5(2H,4H)-dione] | > 20 µM | > 20 µM | –
2 | O=c1ccn(-c2nc3ccccc3n([C@H]3C[C@H]4CCC[C@@H](C3)N4[C@@H]3C[C@@H]4CCCC[C@@H](C4)C3)c2=O)c(=O)[nH]1 [Compound O13b, 1-(4-((1R,3R,5S)-9-((1R,6S,8s)-bicyclo[4.3.1]decan-8-yl)-9-azabicyclo[3.3.1]nonan-3-yl)-3-oxo-3,4-dihydroquinoxalin-2-yl)pyrimidine-2,4(1H,3H)-dione] | > 20 µM | > 20 µM | –
3 | CC1(C)C(=O)NC(=O)N1c1nc2ccccc2n([C@H]2C[C@H]3CCC[C@@H](C2)N3[C@@H]2C[C@@H]3CCCC[C@@H](C3)C2)c1=O [Compound O19a, 1-(4-((1R,3R,5S)-9-((1R,6S,8s)-bicyclo[4.3.1]decan-8-yl)-9-azabicyclo[3.3.1]nonan-3-yl)-3-oxo-3,4-dihydroquinoxalin-2-yl)-5,5-dimethylimidazolidine-2,4-dione] | > 20 µM | > 20 µM | –
4 | O=c1cnn(-c2nc3ccccc3n([C@H]3C[C@H]4COC[C@@H](C3)N4[C@@H]3C[C@@H]4CCCC[C@@H](C4)C3)c2=O)c(=O)[nH]1 [Compound P9b, 2-(4-((1R,5S,7 S)-9-((1R,6S,8s)-bicyclo[4.3.1]decan-8-yl)-3-oxa-9-azabicyclo[3.3.1]nonan-7-yl)-3-oxo-3,4-dihydroquinoxalin-2-yl)-1,2,4-triazine-3,5(2H,4H)-dione] | > 20 µM | 0.104 ± 0.043 µM | 13.1 µM
5 | Cc1nn(-c2nc3ccccc3n([C@H]3C[C@H]4CCC[C@@H](C3)N4[C@H]3C[C@@H]4CCC[C@@H](C4)C3)c2=O)c(=S)[nH]c1=O [Compound U001, 1-((1R,1′R,3r,3′R,5S,5′S)-[3,9′-bi(9′-azabicyclo[3.3.1]nonan)]-3′-yl)-3-(6-methyl-5-oxo-3-thioxo-4,5-dihydro-1,2,4-triazin-2(3H)-yl)quinoxalin-2(1H)-one] | > 20 µM | > 20 µM | –
6 | O=c1ncc(-c2nc3ccccc3n([C@H]3C[C@H]4CCC[C@@H](C3)N4[C@H]3C[C@@H]4CCC[C@@H](C4)C3)c2=O)c[nH]1 [Compound U048, 1-((1R,1′R,3r,3′R,5S,5′S)-[3,9′-bi(9′-azabicyclo[3.3.1]nonan)]-3′-yl)-3-(2-oxo-1,2-dihydropyrimidin-5-yl)quinoxalin-2(1H)-one] | > 20 µM | > 20 µM | –
7 | O=C(O)CCn1cccc(-c2nc3ccccc3n([C@H]3C[C@H]4CCC[C@@H](C3)N4[C@H]3C[C@@H]4CCC[C@@H](C4)C3)c2=O)c1=O [Compound U057, 3-(3-(4-((1R,1′R,3r,3′R,5S,5′S)-[3,9′-bi(9′-azabicyclo[3.3.1]nonan)]-3′-yl)-3-oxo-3,4-dihydroquinoxalin-2-yl)-2-oxopyridin-1(2H)-yl)propanoic acid] | > 20 µM | > 20 µM | –
8 | Nc1ccn(-c2nc3ccccc3n([C@H]3C[C@H]4CCC[C@@H](C3)N4[C@@H]3C[C@@H]4CCCC[C@@H](C4)C3)c2=O)c(=O)n1 [Compound U068, 3-(4-amino-2-oxopyrimidin-1(2H)-yl)-1-((1R,3R,5S)-9-((1R,6S,8s)-bicyclo[4.3.1]decan-8-yl)-9-azabicyclo[3.3.1]nonan-3-yl)quinoxalin-2(1H)-one] | > 20 µM | > 20 µM | –
9 | O=C(O)Cn1cccc(-c2nc3ccccc3n([C@H]3C[C@H]4CC[C@@H](C3)N4[C@H]3C[C@@H]4CCC[C@@H](C4)C3)c2=O)c1=O [Q13a(iii), 2-(3-(4-((1R,3R,5S)-8-((1R,3r,5S)-bicyclo[3.3.1]nonan-3-yl)-8-azabicyclo[3.2.1]octan-3-yl)-3-oxo-3,4-dihydroquinoxalin-2-yl)-2-oxopyridin-1(2H)-yl)acetic acid] | > 20 µM | 0.255 ± 0.042 µM | –
10 | O=c1[nH]cc(F)cc1-c1nc2ccccc2n([C@H]2C[C@H]3CCC[C@@H](C2)N3[C@H]2C[C@@H]3CCC[C@@H](C3)C2)c1=O [R16a(i), 1-((1R,1′R,3r,3′R,5S,5′S)-[3,9′-bi(9′-azabicyclo[3.3.1]nonan)]-3′-yl)-3-(5-fluoro-2-oxo-1,2-dihydropyridin-3-yl)quinoxalin-2(1H)-one] | > 20 µM | 1.61 ± 0.441 µM | –
